≈ marks a conversion by molar mass, not a printed value.
These compounds were tested on SAUR 9218 (assay: MIC Test Method, standard agar dilution). Details: agar dilution, Mueller Hinton agar, incubated overnight at 35° C.; lowest concentration that inhibits visible growth; read-out: SAUR 9218 MIC.
Assay type: cell-based
Protocol: The in vitro MiCs of test compounds were determined by a standard agar dilution method. A stock drug solution of each analog was prepared in the preferred solvent, usually DMSO:H2O (1:3). Serial 2-fold dilutions of each sample are made using 1.0 ml aliquots of sterile distil]ed water. To each 1.0 ml aliquot of drug was added 9 ml of molten Mueller Hinton agar medium. The drug-supplemented agar was mixed, poured into 15×100 mm petri dishes, and allowed to solidify and dry prior to inoculation.
Vials of each of the test organisms are maintained frozen in the vapor phase of a liquid nitrogen freezer. Test cultures are grown overnight at 35° C. on the medium appropriate for the organism. Colonies are harvested with a sterile swab, and cell suspensions are prepared in Trypticase Soy broth (TSB) to equal the turbidity of a 0.5 McFamland standard. A 1:20 dilution of each suspension was made in TSB. The plates containing the drug supplemented agar are inoculated with a 0.001 ml drop of the cell suspension using a Steers replicator, yielding approximately 10^4 to 10^5 cells per spot. The plates are incubated overnight at 35° C.
Following incubation the Minimum Inhibitory Concentration (MIC μg/ml), the lowest concentration of drug that inhibits visible growth of the organism, was read and recorded.

| SMILES | MIC [µg/mL] |
| --- | --- |
| Cc1c(S(=O)(=O)N2CCN(c3cccc(C(F)(F)F)c3)CC2)csc1C(=O)Nc1ccc(Br)cc1C(=O)O | 16 (≈ 25.3 µM) |
| O=C(Nc1ccc(Br)cc1C(=O)O)c1ccc2c(c1)S(=O)(=O)c1ccccc1C2=O | 16 (≈ 32.9 µM) |
| COc1ccc(C(=O)Nc2ccc(Br)cc2C(=O)O)c(OC)n1 | > 128 |
| O=C(Nc1ccc(Br)cc1C(=O)O)c1ccc(Br)s1 | 16 (≈ 39.5 µM) |
| Cc1cc(C(=O)Nc2ccc(Br)cc2C(=O)O)c(C)o1 | > 128 |
| O=C(Nc1ccc(Br)cc1C(=O)O)c1cccc(Br)n1 | 64 (≈ 160 µM) |
| O=C(Nc1ccc(Br)cc1C(=O)O)c1ccc(-c2ccc([N+](=O)[O-])cc2)o1 | 64 (≈ 148 µM) |
| O=C(Nc1ccc(Br)cc1C(=O)O)c1ccc(-c2ccc(Cl)cc2)o1 | 32 (≈ 76.1 µM) |
| O=C(Nc1ccc(Br)cc1C(=O)O)c1cc(Cl)nc(Cl)c1 | 32 (≈ 82 µM) |
| O=C(Nc1ccc(Br)cc1C(=O)O)c1ccc(-c2cccc(C(F)(F)F)c2)o1 | 16 (≈ 35.2 µM) |
| Cn1c(C(=O)Nc2ccc(C#N)cc2C(=O)O)cc2cccc(NC(=O)c3ccc(N=[N+]=[N-])c(I)c3)c21 | > 128 |
| N#Cc1ccc(/C=C/c2noc3ccccc23)c(C(=O)O)c1 | 64 (≈ 220 µM) |
| N#Cc1ccc(NC(=O)c2cc(CNCc3ccncc3)on2)c(C(=O)O)c1.O=C(O)C(F)(F)F | 8 |
| COc1ccc(-c2cnc(C(=O)Nc3ccc(C#N)cc3C(=O)O)cn2)cn1 | > 128 |
| N#Cc1ccc(NC(=O)c2cnc(-c3ccccc3)cn2)c(C(=O)O)c1 | 64 (≈ 186 µM) |
| CS(=O)(=O)c1ccc(-c2cnc(C(=O)Nc3ccc(C#N)cc3C(=O)O)cn2)cc1 | > 128 |
| Cc1noc(C)c1-c1cnc(C(=O)Nc2ccc(C#N)cc2C(=O)O)cn1 | > 128 |
| N#Cc1ccc(NC(=O)c2cc(CNC(=N)N)on2)c(C(=O)O)c1 | 128 (≈ 390 µM) |
| N#Cc1ccc(NC(=O)c2ccc(-c3ccccc3C(F)(F)F)nn2)c(C(=O)O)c1 | 16 (≈ 38.8 µM) |
| O=C(O)c1cc(Br)ccc1NC(=O)c1cccc2c1CCN(Cc1ccccc1)S2(=O)=O | 8 (≈ 15.5 µM) |

| SMILES | MIC [µg/mL] |
| --- | --- |
| N#Cc1ccc(NC(=O)c2cccc3c2CCN(Cc2ccccc2)S3(=O)=O)c(C(=O)O)c1 | 8 (≈ 17.3 µM) |
| Cn1c(C(=O)Nc2ccc(I)cc2C(=O)O)cc2ccccc21 | 4 (≈ 9.52 µM) |
| O=C(Nc1ccc(-c2ccccc2C(F)(F)F)cc1C(=O)O)c1cc(-c2ccccc2F)on1 | 8 (≈ 17 µM) |
| N#Cc1ccc(NC(=O)c2cnc(Cl)cn2)c(C(=O)O)c1 | 32 (≈ 106 µM) |
| O=C(Nc1ccc(I)cc1C(=O)O)c1cnc(Cl)cn1 | 128 (≈ 317 µM) |
| N#Cc1ccc(NC(=O)c2cc(-c3ccccc3Oc3ccc(-c4ccccc4)cc3)on2)c(C(=O)O)c1 | 16 (≈ 31.9 µM) |
| N#Cc1ccc(NC(=O)c2cc(-c3ccccc3Oc3cccc(-c4ccccc4)c3)on2)c(C(=O)O)c1 | > 128 |
| N#Cc1ccc(NC(=O)c2cc(CCC(O)CO)on2)c(C(=O)O)c1 (centres unmarked) | 8 (≈ 23.2 µM) |
| N#Cc1ccc(NC(=O)c2cc(-c3ccccc3Oc3ccccc3-c3ccccc3)on2)c(C(=O)O)c1 | > 128 |
| CCCCCCSc1cnc(C(=O)Nc2ccc(C#N)cc2C(=O)O)nc1 | 2 (≈ 5.2 µM) |
| N#Cc1ccc(NC(=O)c2nc3ccccc3[nH]2)c(C(=O)O)c1 | 4 (≈ 13.1 µM) |
| O=C(Nc1ccc(Br)cc1C(=O)O)c1cnc(CC(O)[C@H]2COC3(CCCCC3)O2)cn1 (some centres unmarked) | 128 (≈ 253 µM) |
| Cn1c(C(=O)Nc2ccc(C#N)cc2C(=O)O)cc2c(-c3ccccc3C(F)(F)F)cc(-c3ccccc3C(F)(F)F)c(NC(=O)Cc3ccccc3)c21 | 8 (≈ 10.8 µM) |
| N#Cc1ccc(NC(=O)c2noc3cc(-c4ccc([N+](=O)[O-])cc4C(F)(F)F)c([N+](=O)[O-])cc23)c(C(=O)O)c1 | 0.03 (≈ 0.0554 µM) |
| Cn1c(C(=O)Nc2ccc(C#N)cc2C(=O)O)cc2c(Br)ccc(NC(=O)Cc3ccccc3)c21 | 2 (≈ 3.76 µM) |
| COCC(=O)Nc1ccc2cc(C(=O)Nc3ccc(C#N)cc3C(=O)O)n(C)c2c1 | 2 (≈ 4.92 µM) |
| Cc1cccc2cc(C(=O)Nc3ccc(C#N)cc3C(=O)O)[nH]c12 | 2 (≈ 6.26 µM) |
| COCC(=O)Nc1ccc2onc(C(=O)Nc3ccc(C#N)cc3C(=O)O)c2c1 | 4 (≈ 10.1 µM) |
| N#Cc1ccc(NC(=O)c2noc3ccc(NC(=O)C4CCC4)cc23)c(C(=O)O)c1 | 2 (≈ 4.95 µM) |
| Cn1c(C(=O)Nc2ccc(C#N)cc2C(=O)O)cc2ccc(NC(=O)c3ccco3)cc21 | 2 (≈ 4.67 µM) |

The remaining lines, values ahead:

| MIC [µg/mL] | SMILES |
| --- | --- |
| 1 (≈ 2.63 µM) | N#Cc1ccc(NC(=O)c2cc(CSc3ccncc3)on2)c(C(=O)O)c1 |
| 0.03 (≈ 0.078 µM) | CCCCCCSc1ccc(C(=O)Nc2ccc(C#N)cc2C(=O)O)nn1 |
| 0.5 (≈ 1.21 µM) | CCCCCCCCSc1cnc(C(=O)Nc2ccc(C#N)cc2C(=O)O)cn1 |
| 0.5 (≈ 1.61 µM) | N#Cc1ccc(NC(=O)c2noc3c2CCCC3)c(C(=O)O)c1 |
| 1 (≈ 3.25 µM) | N#Cc1ccc(NC(=O)c2onc3ccccc23)c(C(=O)O)c1 |
| 2 (≈ 5.54 µM) | O=C(O)c1cc(Br)ccc1NC(=O)c1onc2ccccc12 |
| 2 (≈ 5 µM) | CS(=O)(=O)Nc1ccc2c(C(=O)Nc3ccc(C#N)cc3C(=O)O)noc2c1 |
| 0.5 (≈ 1.04 µM) | N#Cc1ccc(NC(=O)c2noc3cc(NS(=O)(=O)c4ccc(F)cc4)ccc23)c(C(=O)O)c1 |
| 0.5 (≈ 1.55 µM) | N#Cc1ccc(NC(=O)c2noc3cc(N)ccc23)c(C(=O)O)c1 |
| 0.125 (≈ 0.311 µM) | N#Cc1ccc(NC(=O)c2noc3ccc(-c4ccccc4F)cc23)c(C(=O)O)c1 |
| 0.125 (≈ 0.27 µM) | Cn1c(C(=O)Nc2ccc(C#N)cc2C(=O)O)cc2ccc(-c3ccccc3C(F)(F)F)cc21 |
| 0.25 (≈ 0.515 µM) | COc1ccc(-c2ccc3cc(C(=O)Nc4ccc(C#N)cc4C(=O)O)n(C)c3c2)c(OC)c1OC |
| 0.125 (≈ 0.223 µM) | Cn1c(C(=O)Nc2ccc(I)cc2C(=O)O)cc2cccc(S(=O)(=O)c3ccccc3)c21 |
| 0.125 (≈ 0.293 µM) | Cn1c(C(=O)Nc2ccc(C#N)cc2C(=O)O)cc2cccc(OCc3cccnc3)c21 |
| 0.5 (≈ 1.11 µM) | O=C(Nc1ccc(I)cc1C(=O)O)c1cc(-c2ccccc2F)on1 |
| 0.5 (≈ 1.12 µM) | Cc1ccccc1-c1cc(C(=O)Nc2ccc(I)cc2C(=O)O)no1 |
| 1 (≈ 2.3 µM) | O=C(Nc1ccc(I)cc1C(=O)O)c1cc(-c2ccccc2)on1 |
| 0.5 (≈ 1.03 µM) | C[C@@H](CBr)COc1ccccc1-c1cc(C(=O)Nc2ccc(C#N)cc2C(=O)O)no1 |
| 0.015 (≈ 0.0376 µM) | CCCCCCCSc1ccc(C(=O)Nc2ccc(C#N)cc2C(=O)O)nn1 |
| 0.25 (≈ 0.627 µM) | CCCCCCCSc1cnc(C(=O)Nc2ccc(C#N)cc2C(=O)O)cn1 |
| 1 (≈ 2.41 µM) | Cc1noc(C)c1-c1ccc2cc(C(=O)Nc3ccc(C#N)cc3C(=O)O)n(C)c2c1 |
| 0.5 (≈ 1.22 µM) | Cc1ccccc1-c1ccc2cc(C(=O)Nc3ccc(C#N)cc3C(=O)O)n(C)c2c1 |
| 0.125 (≈ 0.285 µM) | CCCCCCSc1ccc(C(=O)Nc2ccc(Br)cc2C(=O)O)nn1 |
| 0.015 (≈ 0.0405 µM) | CCCCCSc1ccc(C(=O)Nc2ccc(C#N)cc2C(=O)O)nn1 |
| 1 (≈ 2.04 µM) | O=C(Nc1ccc(I)cc1C(=O)O)c1cnc(SCc2ccccc2)cn1 |
| 0.5 (≈ 1.12 µM) | N#Cc1ccc(NC(=O)c2noc3c2CN(C(=O)OCc2ccccc2)CC3)c(C(=O)O)c1 |

| MIC [µg/mL] | SMILES |
| --- | --- |
| 0.5 (≈ 1.02 µM) | Cn1c(C(=O)Nc2ccc(C#N)cc2C(=O)O)cc2c(Br)cc(Br)c(N)c21 |
| 0.5 (≈ 1.36 µM) | N#Cc1ccc(NC(=S)c2cc(-c3ccccc3F)on2)c(C(=O)O)c1 |
| 2 (≈ 3.28 µM) | Cn1c(C(=O)Nc2ccc(C#N)cc2C(=O)O)cc2c(Br)cc(Br)c(NC(=O)Cc3ccccc3)c21 |
| 1 (≈ 2.74 µM) | CC(=O)Oc1ccc2c(C(=O)Nc3ccc(C#N)cc3C(=O)O)noc2c1 |
| 1 (≈ 3.09 µM) | N#Cc1ccc(NC(=O)c2noc3cc(O)ccc23)c(C(=O)O)c1 |
| 0.25 (≈ 0.605 µM) | N#Cc1ccc(NC(=O)c2noc3cc(OCc4ccccc4)ccc23)c(C(=O)O)c1 |
| 0.5 (≈ 1.48 µM) | COc1ccc2c(C(=O)Nc3ccc(C#N)cc3C(=O)O)noc2c1 |
| 0.25 (≈ 0.524 µM) | N#Cc1ccc(NC(=O)c2noc3cc(OS(=O)(=O)Cc4ccccc4)ccc23)c(C(=O)O)c1 |
| 0.5 (≈ 1.08 µM) | N#Cc1ccc(NC(=O)c2noc3cc(OS(=O)(=O)c4ccccc4)ccc23)c(C(=O)O)c1 |
| 1 (≈ 2.42 µM) | Cn1c(C(=O)Nc2ccc(C#N)cc2C(=O)O)cc2c(Br)ccc(N)c21 |
| 0.5 (≈ 1.02 µM) | N#Cc1ccc(NC(=O)c2[nH]c3c(OCc4ccccc4)cccc3c2Br)c(C(=O)O)c1 |
| 1 (≈ 2.3 µM) | CC(=O)OCC(=O)Nc1ccc2cc(C(=O)Nc3ccc(C#N)cc3C(=O)O)n(C)c2c1 |
| 0.015 (≈ 0.0324 µM) | N#Cc1ccc(NC(=O)c2noc3ccc(S(=O)(=O)Nc4ccccc4)cc23)c(C(=O)O)c1 |
| 0.125 (≈ 0.283 µM) | CCN(CC)S(=O)(=O)c1ccc2onc(C(=O)Nc3ccc(C#N)cc3C(=O)O)c2c1 |
| 0.5 (≈ 1.21 µM) | Cn1c(C(=O)Nc2ccc(C#N)cc2C(=O)O)cc2ccc(Br)c(N)c21 |
| 0.06 (≈ 0.133 µM) | CCCCCCCSc1ccc(C(=O)Nc2ccc(Br)cc2C(=O)O)nn1 |
| 1 (≈ 1.98 µM) | Cn1c(C(=O)Nc2ccc(C#N)cc2C(=O)O)c(Br)c2cccc(OCc3ccccc3)c21 |
| 1 (≈ 1.9 µM) | Cn1c(C(=O)Nc2ccc(C#N)cc2C(=O)O)cc2ccc(NS(=O)(=O)c3cccc4cccnc34)cc21 |
| 0.5 (≈ 1.1 µM) | N#Cc1ccc(NC(=O)c2noc3ccc(S(=O)(=O)N4CCOCC4)cc23)c(C(=O)O)c1 |
| 0.125 (≈ 0.31 µM) | Cn1c(C(=O)Nc2ccc(C#N)cc2C(=O)O)cc2ccc(OCC3CCC3)cc21 |
| 1 (≈ 2.47 µM) | CCCC(=O)Nc1ccc2cc(C(=O)Nc3ccc(C#N)cc3C(=O)O)n(C)c2c1 |
| 0.03 (≈ 0.0707 µM) | CCCCCSc1ccc(C(=O)Nc2ccc(Br)cc2C(=O)O)nn1 |
| 1 (≈ 2.78 µM) | N#Cc1ccc(NC(=O)c2cc3cccc4c3n2CCC4=O)c(C(=O)O)c1 |
| 0.03 (≈ 0.0531 µM) | CC(=O)Nc1ccc(-c2cc3onc(C(=O)Nc4ccc(C#N)cc4C(=O)O)c3cc2NC(C)=O)c(C(F)(F)F)c1 |
| 0.125 (≈ 0.302 µM) | CN(C)S(=O)(=O)c1ccc2onc(C(=O)Nc3ccc(C#N)cc3C(=O)O)c2c1 |
| 0.5 (≈ 1.07 µM) | CN(C(=O)Nc1ccc2cc(C(=O)Nc3ccc(C#N)cc3C(=O)O)n(C)c2c1)c1ccccc1 |
